What was measured:
[1] = test system: ovalbumin actively sensitized allergic conjunctivitis model of rabbits; test: Allergic conjunctivitis model evaluation test; format: in vivo, rabbit; settings: 1% suspension, eye drop 50 μL four times a day for 4 days plus once; 0.5 hour after challenge
Description: In order to evaluate an anti-allergic action of the present compounds on allergic conjunctivitis, an inhibitory effect on hyperemia in an ovalbumin actively sensitized allergic conjunctivitis model of rabbits was investigated. Incidentally, this effect was evaluated by calculating an inhibitory ratio from the score of the base agent administered group (control group) and the score of the test compound administered group.
A base agent containing a general additive(s) was added to the test compound to prepare test compound suspensions with 1% (WN) and 3% (W/V).
By using male JW rabbits, ovalbumin (200 μg/mL/physiological saline solution) adsorbed on aluminum hydroxide gel was injected 200 μL per eye into bulbar conjunctiva of both eyes of rabbits, respectively, to perform active sensitization.
After 14 days from sensitization or later, the test compound suspension was eye-dropped four times a day for 4 days, and then, at the next day, it was eye-dropped (instillation dose: 50 μL/time) once to both eyes. Incidentally, the base agent was similarly eye-dropped to the base agent administered group (control group).
One hour after the final eye dropping of the test compound suspension, a physiological saline solution containing 0.02% (W/V) of ovalbumin was administered from rabbit ear vein at a dose of 1.5 mL per 1 kg of rabbit to induce allergic conjunctivitis.
After 0.5 hour of the challenge, the degree of hyperemia symptoms of both ocular conjunctiva of rabbits was evaluated according to the following criteria, and the average value of the total of these scores was calculated. […]

[2] = target: Recombinant human GR (Homo sapiens (Human), UniProt P04150); test: GR competitive binding assay by fluorescence polarization; settings: 20 μM test compound solution, 10 μL/well; 2 hours; DEX positive control; read-out: GR binding rate (%)
Chain of Recombinant human GR (P04150 whole entry): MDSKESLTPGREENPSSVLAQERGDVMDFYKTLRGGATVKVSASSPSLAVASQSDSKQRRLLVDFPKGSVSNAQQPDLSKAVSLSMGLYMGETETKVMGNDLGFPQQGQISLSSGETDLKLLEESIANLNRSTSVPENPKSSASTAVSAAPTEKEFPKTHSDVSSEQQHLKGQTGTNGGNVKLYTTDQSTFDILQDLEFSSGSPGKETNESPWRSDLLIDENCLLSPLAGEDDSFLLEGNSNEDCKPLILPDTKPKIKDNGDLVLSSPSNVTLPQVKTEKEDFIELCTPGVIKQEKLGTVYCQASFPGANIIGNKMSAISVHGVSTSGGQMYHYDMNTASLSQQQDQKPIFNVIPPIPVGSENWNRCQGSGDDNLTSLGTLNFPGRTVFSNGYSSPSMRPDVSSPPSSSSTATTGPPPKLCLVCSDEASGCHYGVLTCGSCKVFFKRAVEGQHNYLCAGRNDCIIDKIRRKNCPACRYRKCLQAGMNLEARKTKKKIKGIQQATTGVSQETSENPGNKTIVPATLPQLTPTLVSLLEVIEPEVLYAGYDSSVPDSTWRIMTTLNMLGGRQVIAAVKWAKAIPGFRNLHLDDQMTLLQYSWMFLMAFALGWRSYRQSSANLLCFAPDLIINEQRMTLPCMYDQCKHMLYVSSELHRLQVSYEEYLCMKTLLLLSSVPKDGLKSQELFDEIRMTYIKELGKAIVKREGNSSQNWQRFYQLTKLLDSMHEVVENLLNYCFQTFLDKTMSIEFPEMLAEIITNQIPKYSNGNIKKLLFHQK
How it was run: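 Fluorescence polarization competition between test compound and Fluormone GS1 fluorescent glucocorticoid ligand for recombinant human GR. Buffer 10 mM potassium phosphate pH 7.4, 20 mM Na2MoO4, 0.1 mM EDTA, 5 mM DTT, 2% DMSO. 2 h dark incubation at room temperature; binding ratio (%) scaled between buffer-only and DEX controls.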

[3] = test system: TNFα production in rat whole blood; test: TNFα production inhibitory action evaluation test (LPS stimulation ex vivo, ELISA); format: cell-based; settings: 20 hours, 200 μM test compound solution 10 μL/well, DEX treated group = 100, read-out: TNFα production inhibitory ratio (% DEX)
Description: In order to evaluate an action of the present compound as a GR agonist, a TNFα production inhibitory action in rat whole blood after LPS stimulation ex vivo was investigated. For the measurement of the TNFα production amount, the ELISA method (manufactured by R&D Systems, Cat No. RTA00) was used, and a procedure was carried out according to the protocol attached thereto. Hereinafter, the specific method will be described.
LPS solution: LPS was dissolved in PBS(−) and diluted with RPMI 1640 to prepare an LPS solution with a concentration of 2 μg/mL.
After the test compound was dissolved in dimethylsulfoxide, the solution was diluted with PBS(−) to prepare 200 μM of a test compound solution. In addition, DEX was similarly dissolved to prepare 200 μM of a DEX solution, and a TNFα production inhibitory ratio of DEX was measured, and used for calculation of Efficacy (% DEX).
• 1) Blood was collected from 3 to 5 rats using an injection syringe treated with heparin from the abdominal aorta under isoflurane anesthesia. The rats confirmed death after lething the whole blood. • 2) The blood of 3 to 5 rats pooled in a 96-well round bottom culture plate was seeded at each 180 μL/well. • 3) It was cultured (37° C., 5% CO2, 95% air) for about 1 hour. • 4) The test compound solution was added each 10 μL/well, and cultured for 1 hour. • 5) LPS solution was added each 10 μL/well. • 6) The sample in which 2% dimethylsulfoxide-containing PBS(−) was added with each 10 μL/well in place of each test compound solution, and RPMI 1640 was added with each 10 μL/well in place of the LPS solution was made a negative control. • 7) The sample in which 2% dimethylsulfoxide-containing PBS(−) was added with each 10 μL/well in place of each test compound solution was made a positive control. • 8) After completion of 20 hours cultivation, the supernatant was recovered and the amount of TNFα released in the supernatant was measured by using an ELISA Kit. • 9) The TNFα production inhibitory ratio was calculated according to the following calculation formula. (Calculation of TNFα Production Inhibitory Ratio)
TNFα production inhibitory ratio (%) was calculated according to the following formula. TNFα production inhibitory ratio (%)=100×{1−(TNFα production amount of each test compound solution−average value of TNFα production amount of negative control group)/(average value of TNFα production amount of positive control group−average value of TNFα production amount of negative control group)}(%)
Further, a TNFα production inhibitory ratio (Efficacy (% DEX)) when the DEX treated group was made 100 was calculated. Efficacy (% DEX)=100×{(average value of TNFα production inhibitory ratio of each test compound solution)/(average value of TNFα production inhibitory ratio of DEX treated group)}(%)

[4] = test system: exorbital lacrimal gland-removed rat dry eye model; test: Dry eye syndrome (dry eye) model evaluation test; format: in vivo; settings: eye drop 5 μL four times a day
Description: In order to evaluate the treatment effect of the present compounds on corneal disorder accompanied by dry eye syndrome (dry eye), a treatment effect on corneal disorder in an exorbital lacrimal gland-removed rat dry eye model was investigated. This model was prepared in accordance with the method of Fujihara, et al. (Invest. Ophthalmol. Vis. Sci., 42(1): 96-100 (2001)). Incidentally, this effect was scored according to the method of Murakami et al. (New Ophthalmologist 21(1): 87-90 (2004)), the extent of corneal disorder was scored and the improvement ratio was calculated from the corneal disorder score of the base agent administered group (control group), the corneal disorder score of the test compound administered group and the corneal disorder score of the normal rat.
A base agent containing a general additive(s) was added to the test compound to prepare test compound suspensions with 0.03% (W/V) and 0.1% (W/V). In addition, a base agent was added to the commercially available drug A to prepare a diluted solution with 0.05% (V/V).
• 1) By using male SD rats, somnopentyl was administered to the rats to apply them general anesthesia, exorbital lacrimal glands were removed, and corneal disorder was induced over 8 weeks thereafter. • 2) The test compound suspension was eye-dropped (instillation dose: 5 μL/time) to both eyes four times a day for 14 days. Incidentally, the base agent was similarly eye-dropped to the administered group (control group), and the commercially available drug A and its diluted solution were similarly eye-dropped. • 3) Fourteen days after the start of eye dropping, the cornea was stained with fluorescein. For each of the upper part, the middle part and the lower part of the cornea, scores of the degree of staining with fluorescein were determined according to the following criteria, and an average value of the total of the scores was calculated. Incidentally, 0.5 was set as an intermediate value between each score of 0, 1, 2 and 3. <<Judgement Standard>>
1: Dyeing is sparse, and the dyed portions of each dot are separated
2: Dyeing is a middle degree and part of the dotted dyed portions is adjacent
3: Dyeing is dense, and the dyed portions of each point are almost adjacent
(Calculation Formula) Corneal disorder improvement ratio (%) of the test compound administered group=(Ao−Ax)/(Ao−An)×100 • Ao: Average value of corneal disorder score of the base agent administered group (control group) • Ax: Average value of corneal disorder score of the test compound administered group • An: Average value of corneal disorder score of normal rat (Test Result and Consideration)

[5] = test system: exorbital lacrimal gland-removed rat dry eye model; test: Dry eye syndrome (dry eye) model evaluation test; format: in vivo; settings: eye drop 5 μL four times a day; remark: listed apart in the source

SMILES: COc1cc(OC[C@H](C)OP(=O)(O)O)ccc1-c1ccc2c(c1COc1cc(F)ccc1C)N(C)C(=O)C(C)(C)N2 [Compound 14-1, (S)-8-(5-fluoro-2-methylphenoxymethyl)-7-[4-(2-phosphonohydroxypropyl)oxy-2-methoxyphenyl]-1,3,3-trimethyl-3,4-dihydro-1H-quinoxalin-2-one]
- Eye congestion inhibitory ratio (%) [1]: 22%
- inhibition at 10 µM [2]: > 99%
- Emax [3]: 86%

SMILES: COc1cc(OC[C@H](C)OC(=O)C(O)CO)ccc1-c1ccc2c(c1COc1cc(F)ccc1C)N(C)C(=O)C(C)(C)N2 (stereo partly drawn) [Compound 13-1, (S)-7-[4-[2-(2,3-dihydroxypropanoyl)oxypropyl]oxy-2-methoxyphenyl]-8-(5-fluoro-2-methylphenoxymethyl)-1,3,3-trimethyl-3,4-dihydro-1H-quinoxalin-2-one]
- Corneal disorder improvement ratio (%) After 14 days eye dropping ([4]; 0.1%): 46%
- Corneal disorder improvement ratio (%) After 7 days eye dropping ([5]; 0.1%): 38%

SMILES: COc1cc(OC[C@H](C)OC(=O)CCC(=O)O)ccc1-c1ccc2c(c1COc1cc(F)ccc1C)N(C)C(=O)C(C)(C)N2 [Compound 12-1, (S)-7-[4-[2-(3-carboxypropanoyloxy)propyl]oxy-2-methoxyphenyl]-8-(5-fluoro-2-methylphenoxymethyl)-1,3,3-trimethyl-3,4-dihydro-1H-quinoxalin-2-one]
- Corneal disorder improvement ratio (%) After 14 days eye dropping ([4]; 0.03%): 48%
- Corneal disorder improvement ratio (%) After 14 days eye dropping ([4]; 0.1%): 58%
- Corneal disorder improvement ratio (%) After 7 days eye dropping ([5]; 0.03%): 33%
- Corneal disorder improvement ratio (%) After 7 days eye dropping ([5]; 0.1%): 42%

From patent US10189796B2, “[4-(1,3,3-trimethyl-2-oxo-3,4-dihydro-1H-quinoxalin-7-yl)phenoxy]ethyloxy compound or salt thereof” (SANTEN PHARMACEUTICAL CO., LTD., priority 2015, dated 2019)
